Source: patent US11858905B1, “Cathepsin L inhibitors” (priority 2023, dated 2024)
Read-outs that look alike come from different tables or passages of the source.

Legend:
human CatL = human CatL (Homo sapiens (Human), UniProt P07711); test: Human Cathepsin L (CatL) enzymatic assay; type: biochemical
Procedure: Human Cathepsin L (CatL) Enzymatic Assay
60 μL of the compounds were added to 384-well dilution plate. The compound solution was diluted for 1:3 in succession in DMSO for each column for 10 pts. 0.05 μL diluted compound solution was added in each row to 384 assay plates (Corning 4514) using Echo (LABCYTE 655), each column containing 2 replicates. 5 μL working solution of human CatL enzyme (Abcam #ab81780) was added to 384-well assay plate, centrifuge 1000 rpm for 1 min. The mixture was incubated at […] for 15 min, then add 5 μL working solution of CatL substrate (Genscript #C7360HB140_5) to initiate the reaction (CatL: 0.05 nM, Substrate: 500 nM). Incubate at […] for 30 min. Reading Ex370 nm and Em460 nm fluorescence signals with BMG CLARIO Star Plusaucu. Percent inhibition for each compound was calculated and IC50 (half maximal inhibitory concentration) was fitted from non-linear regression by XLfit 5.5.0.

SARS-CoV-2 PsVs = test: microbe, parasite or virus in culture; type: cell-based; conditions: for activity at 0.5 µM / activity at 5 µM: Severe acute respiratory syndrome coronavirus 2, Vero C1008, 24 h; for activity at 0.5 µM: read-out: % Infection rate at 500 nM; for activity at 5 µM: read-out: % Infection rate at 5 uM
[1] = CatL 0.05 nM, substrate 500 nM, pH 5.5, read-out: Enzymatic inhibition IC50
[2] = summary of Table 2, read-out: IC50 for inhibiting CatL

Chain of human CatL (P07711 whole entry, looked up): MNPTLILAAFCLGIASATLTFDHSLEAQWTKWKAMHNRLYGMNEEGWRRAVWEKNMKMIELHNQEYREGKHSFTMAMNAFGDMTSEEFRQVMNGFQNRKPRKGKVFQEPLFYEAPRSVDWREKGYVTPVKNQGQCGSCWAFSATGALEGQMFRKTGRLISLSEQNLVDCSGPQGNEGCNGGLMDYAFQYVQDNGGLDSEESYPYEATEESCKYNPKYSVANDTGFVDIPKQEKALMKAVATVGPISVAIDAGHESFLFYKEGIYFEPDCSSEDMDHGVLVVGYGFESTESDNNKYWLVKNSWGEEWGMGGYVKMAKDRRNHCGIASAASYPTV

| Structure (SMILES) | IC50 (human CatL; [1]) [nM] | activity at 0.5 µM (SARS-CoV-2 PsVs) [%] | activity at 5 µM (SARS-CoV-2 PsVs) [%] | IC50 (human CatL; [2]) [nM] | protection of cells from pseudovirus infection at 500 nM (SARS-CoV-2 PsVs; 500 nM) |
| --- | --- | --- | --- | --- | --- |
| CC(C)(C)c1cc(C(=O)N[C@@H](Cc2nc3cc(F)cc(Cl)c3o2)C(=O)NC2(C#N)CC2)n(C2CC2)n1 [Compound 21, (S)-3-(tert-butyl)-N-(3-(7-chloro-5-fluorobenzo[d]oxazol-2-yl)-1-((1-cyanocyclopropyl)amino)-1-oxopropan-2-yl)-1-cyclopropyl-1 H-pyrazole-5-carboxamide] | 8.2 | 60 | 12 |  |  |
| CC(C)(C)c1cc(C(=O)N[C@@H](Cc2nc3cc(F)cc(Cl)c3o2)C(=O)NC2(C#N)CC2)n(C2COC2)n1 [Compound 22, (S)-3-(tert-butyl)-N-(3-(7-chloro-5-fluorobenzo[d]oxazol-2-yl)-1-((1-cyanocyclopropyl)amino)-1-oxopropan-2-yl)-1-(oxetan-3-yl)-1H-pyrazole-5-carboxamide] | 5.3 | 33 | 13 |  |  |
| N#CC1(NC(=O)[C@H](Cc2nc3c(-c4cn[nH]c4)cccc3o2)NC(=O)c2cccc(Cl)c2)CC1 [Compound 23, (S)—N-(3-(4-(1H-pyrazol-4-yl)benzo[d]oxazol-2-yl)-1-((1-cyanocyclopropyl)amino)-1-oxopropan-2-yl)-3-chlorobenzamide] | 361 | 93 | 98 |  |  |
| CN1CCN(c2ccc3nc(C[C@H](NC(=O)c4cccc(Cl)c4)C(=O)NC4(C#N)CC4)oc3c2)CC1 [Compound 24, (S)-3-chloro-N-(1-((1-cyanocyclopropyl)amino)-3-(6-(4-methylpiperazin-1-yl)benzo[d]oxazol-2-yl)-1-oxopropan-2-yl)benzamide] | 9.7 | 34 | 2 | < 10 |  |
| CN1CCN(c2ccc3nc(C[C@H](NC(=O)c4cc(C5CC5)nn4C4CC4)C(=O)NCC#N)oc3c2)CC1 [Compound 25, (S)—N-(1-((cyanomethyl)amino)-3-(6-(4-methylpiperazin-1-yl)benzo[d]oxazol-2-yl)-1-oxopropan-2-yl)-1,3-dicyclopropyl-1 H-pyrazole-5-carboxamide] | 36.7 | 54 | 15 |  |  |
| CN1CCN(c2ccc3nc(C[C@H](NC(=O)c4cc(C(C)(C)C)nn4C4CC4)C(=O)NC4(C#N)CC4)oc3c2)CC1 [Compound 26, (S)-3-(tert-butyl)-N-(1-((1-cyanocyclopropyl)amino)-3-(6-(4-methylpiperazin-1-yl)benzo[d]oxazol-2-yl)-1-oxopropan-2-yl)-1-cyclopropyl-1 H-pyrazole-5-carboxamide] | 1.4 | 25 | 2.2 | < 10 |  |
| CN1CC=C(c2ccc3nc(C[C@H](NC(=O)c4cccc(Cl)c4)C(=O)NC4(C#N)CC4)oc3c2)CC1 [Compound 27, (S)-3-chloro-N-(1-((1-cyanocyclopropyl)amino)-3-(6-(1-methyl-1,2,3,6-tetrahydropyridin-4-yl)benzo[d]oxazol-2-yl)-1-oxopropan-2-yl)benzamide] | 8.5 | 40 | 13 | < 10 |  |
| N#CC1(NC(=O)[C@H](Cc2nc3ccc(C4=CCN(CC(F)F)CC4)cc3o2)NC(=O)c2cccc(Cl)c2)CC1 [Compound 28, (S)-3-chloro-N-(1-((1-cyanocyclopropyl)amino)-3-(6-(1-(2,2-difluoroethyl)-1,2,3,6-tetrahydropyridin-4-yl)benzo[d]oxazol-2-yl)-1-oxopropan-2-yl)benzamide] | 12.3 | 70 | 38 |  |  |
| CC(C)(C)c1cc(C(=O)N[C@@H](Cc2nc3ccc(C4=CCN(CC(F)F)CC4)cc3o2)C(=O)NC2(C#N)CC2)n(C2CC2)n1 [Compound 29, (S)-3-(tert-butyl)-N-(1-((1-cyanocyclopropyl)amino)-3-(6-(1-(2,2-difluoroethyl)-1,2,3,6-tetrahydropyridin-4-yl)benzo[d]oxazol-2-yl)-1-oxopropan-2-yl)-1-cyclopropyl-1 H-pyrazole-5-carboxamide] | 1.3 | 7.3 | 8.8 | < 10 | nearly full protection |
| CN1CCN(c2ccc3nc(C[C@H](NC(=O)c4cccc(Cl)c4)C(=O)NC4(C#N)CC4)oc3c2)C(=O)C1 [Compound 30, (S)-3-chloro-N-(1-((1-cyanocyclopropyl)amino)-3-(6-(4-methyl-2-oxopiperazin-1-yl)benzo[d]oxazol-2-yl)-1-oxopropan-2-yl)benzamide] | 124 | 99 | 101 |  |  |
| N#CC1(NC(=O)[C@H](Cc2nc3ccccc3s2)NC(=O)c2cccc(Cl)c2)CC1 [Compound 31, (S)—N-(3-(benzo[d]thiazol-2-yl)-1-((1-cyanocyclopropyl)amino)-1-oxopropan-2-yl)-3-chlorobenzamide] | 11.7 | 67 | 10 | < 50 |  |
| Cn1c(C[C@H](NC(=O)c2cccc(Cl)c2)C(=O)NC2(C#N)CC2)nc2ccccc21 [Compound 32, (S)-3-chloro-N-(1-((1-cyanocyclopropyl)amino)-3-(1-methyl-1 H-benzo[d]imidazol-2-yl)-1-oxopropan-2-yl)benzamide] | > 1000 | 101 | 95 |  |  |
| CC(C)(C)c1cc(C(=O)N[C@@H](Cc2nc3ccc(Br)cc3o2)C(=O)NC2(C#N)CC2)n(C2CC2)n1 [Compound 33, (S)—N-(3-(6-bromobenzo[d]oxazol-2-yl)-1-((1-cyanocyclopropyl)amino)-1-oxopropan-2-yl)-3-(tert-butyl)-1-cyclopropyl-1H-pyrazole-5-carboxamide] | 2.9 | 39 | 5.9 |  |  |
| CC(C)(C)c1cc(C(=O)N[C@@H](Cc2nc3ccc(-c4ccc(N)nc4)cc3o2)C(=O)NC2(C#N)CC2)n(C2CC2)n1 [Compound 34, (S)—N-(3-(6-(6-aminopyridin-3-yl)benzo[d]oxazol-2-yl)-1-((1-cyanocyclopropyl)amino)-1-oxopropan-2-yl)-3-(tert-butyl)-1-cyclopropyl-1H-pyrazole-5-carboxamide] | 0.6 | 41 | 0.9 |  |  |
| Cc1cc(-c2ccc3nc(C[C@H](NC(=O)c4cc(C5(C)CC5)nn4C4CC4)C(=O)NCC#N)oc3c2)ccn1 [Compound 35, (S)—N-(1-((cyanomethyl)amino)-3-(6-(2-methylpyridin-4-yl)benzo[d]oxazol-2-yl)-1-oxopropan-2-yl)-1-cyclopropyl-3-(1-methylcyclopropyl)-1H-pyrazole-5-carboxamide] | 1.1 | 40 | 3.1 |  |  |
| Cc1cc(-c2ccc3nc(C[C@H](NS(=O)(=O)c4cccc(Br)c4)C(=O)NCC#N)oc3c2)ccn1 [Compound 36, (S)-2-((3-bromophenyl)sulfonamido)-N-(cyanomethyl)-3-(6-(2-methylpyridin-4-yl)benzo[d]oxazol-2-yl)propanamide] | 79.3 | 110 | 125 |  |  |
| Cc1cc(-c2ccc3nc(C[C@H](NS(=O)(=O)c4cccc(Cl)c4)C(=O)NCC#N)oc3c2)ccn1 [Compound 37, (S)-2-((3-chlorophenyl)sulfonamido)-N-(cyanomethyl)-3-(6-(2-methylpyridin-4-yl)benzo[d]oxazol-2-yl)propanamide] | 125 | 96 | 104 |  |  |
| Cc1cc(-c2ccc3nc(C[C@H](NC(=O)c4cc(C5(C)CC5)nn4C4CC4)C(=O)NC4(C#N)CC4)oc3c2)ccn1 [Compound 38, (S)—N-(1-((1-cyanocyclopropyl)amino)-3-(6-(2-methylpyridin-4-yl)benzo[d]oxazol-2-yl)-1-oxopropan-2-yl)-1-cyclopropyl-3-(1-methylcyclopropyl)-1H-pyrazole-5-carboxamide] | 1.7 | 34 | 1 |  |  |
| CN(C)c1ccc(-c2ccc3nc(C[C@H](NC(=O)c4cc(C5(C)CC5)nn4C4CC4)C(=O)NC4(C#N)CC4)oc3c2)cn1 [Compound 39, (2S)—N-(1-cyanocyclopropyl)-2-{[2-cyclopropyl-5-(1-methylcyclopropyl)pyrazol-3-yl]formamido}-3-{6-[6-(dimethylamino)pyridin-3-yl]-1,3-benzoxazol-2-yl}propanamide] | 1.6 | 32 | 4 |  |  |
| CC1(c2cc(C(=O)N[C@@H](Cc3nc4ccc(C5=CCN(CC(F)F)CC5)cc4o3)C(=O)NC3(C#N)CC3)n(C3CC3)n2)CC1 [Compound 40, (S)—N-(1-((1-cyanocyclopropyl)amino)-3-(6-(1-(2,2-difluoroethyl)-1,2,3,6-tetrahydropyridin-4-yl)benzo[d]oxazol-2-yl)-1-oxopropan-2-yl)-1-cyclopropyl-3-(1-methylcyclopropyl)-1H-pyrazole-5-carboxamide] | 1.5 | 57 | 12 |  |  |
